Measurements as given in patent US9546164B2 (GENENTECH, INC., priority 2013, dated 2017).
pIC50: −log10 of the molar value. Counter-ions that a name gives are not always drawn.

What follows are molecules tested against hNav1.7 (Homo sapiens (Human), UniProt Q15858) (assay: Tritiated sulfonamide competitive binding to membranes from cells expressing hNav1.7 and the β1 subunit). Details: not given.
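Further: Filter-bound radioactivity counted by liquid scintillation, nonspecific binding defined with excess unlabelled ligand, IC50 fitted to percent inhibition of specific binding.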

Chain of hNav1.7 (Q15858 other isoform, or with tags, fused parts or gaps): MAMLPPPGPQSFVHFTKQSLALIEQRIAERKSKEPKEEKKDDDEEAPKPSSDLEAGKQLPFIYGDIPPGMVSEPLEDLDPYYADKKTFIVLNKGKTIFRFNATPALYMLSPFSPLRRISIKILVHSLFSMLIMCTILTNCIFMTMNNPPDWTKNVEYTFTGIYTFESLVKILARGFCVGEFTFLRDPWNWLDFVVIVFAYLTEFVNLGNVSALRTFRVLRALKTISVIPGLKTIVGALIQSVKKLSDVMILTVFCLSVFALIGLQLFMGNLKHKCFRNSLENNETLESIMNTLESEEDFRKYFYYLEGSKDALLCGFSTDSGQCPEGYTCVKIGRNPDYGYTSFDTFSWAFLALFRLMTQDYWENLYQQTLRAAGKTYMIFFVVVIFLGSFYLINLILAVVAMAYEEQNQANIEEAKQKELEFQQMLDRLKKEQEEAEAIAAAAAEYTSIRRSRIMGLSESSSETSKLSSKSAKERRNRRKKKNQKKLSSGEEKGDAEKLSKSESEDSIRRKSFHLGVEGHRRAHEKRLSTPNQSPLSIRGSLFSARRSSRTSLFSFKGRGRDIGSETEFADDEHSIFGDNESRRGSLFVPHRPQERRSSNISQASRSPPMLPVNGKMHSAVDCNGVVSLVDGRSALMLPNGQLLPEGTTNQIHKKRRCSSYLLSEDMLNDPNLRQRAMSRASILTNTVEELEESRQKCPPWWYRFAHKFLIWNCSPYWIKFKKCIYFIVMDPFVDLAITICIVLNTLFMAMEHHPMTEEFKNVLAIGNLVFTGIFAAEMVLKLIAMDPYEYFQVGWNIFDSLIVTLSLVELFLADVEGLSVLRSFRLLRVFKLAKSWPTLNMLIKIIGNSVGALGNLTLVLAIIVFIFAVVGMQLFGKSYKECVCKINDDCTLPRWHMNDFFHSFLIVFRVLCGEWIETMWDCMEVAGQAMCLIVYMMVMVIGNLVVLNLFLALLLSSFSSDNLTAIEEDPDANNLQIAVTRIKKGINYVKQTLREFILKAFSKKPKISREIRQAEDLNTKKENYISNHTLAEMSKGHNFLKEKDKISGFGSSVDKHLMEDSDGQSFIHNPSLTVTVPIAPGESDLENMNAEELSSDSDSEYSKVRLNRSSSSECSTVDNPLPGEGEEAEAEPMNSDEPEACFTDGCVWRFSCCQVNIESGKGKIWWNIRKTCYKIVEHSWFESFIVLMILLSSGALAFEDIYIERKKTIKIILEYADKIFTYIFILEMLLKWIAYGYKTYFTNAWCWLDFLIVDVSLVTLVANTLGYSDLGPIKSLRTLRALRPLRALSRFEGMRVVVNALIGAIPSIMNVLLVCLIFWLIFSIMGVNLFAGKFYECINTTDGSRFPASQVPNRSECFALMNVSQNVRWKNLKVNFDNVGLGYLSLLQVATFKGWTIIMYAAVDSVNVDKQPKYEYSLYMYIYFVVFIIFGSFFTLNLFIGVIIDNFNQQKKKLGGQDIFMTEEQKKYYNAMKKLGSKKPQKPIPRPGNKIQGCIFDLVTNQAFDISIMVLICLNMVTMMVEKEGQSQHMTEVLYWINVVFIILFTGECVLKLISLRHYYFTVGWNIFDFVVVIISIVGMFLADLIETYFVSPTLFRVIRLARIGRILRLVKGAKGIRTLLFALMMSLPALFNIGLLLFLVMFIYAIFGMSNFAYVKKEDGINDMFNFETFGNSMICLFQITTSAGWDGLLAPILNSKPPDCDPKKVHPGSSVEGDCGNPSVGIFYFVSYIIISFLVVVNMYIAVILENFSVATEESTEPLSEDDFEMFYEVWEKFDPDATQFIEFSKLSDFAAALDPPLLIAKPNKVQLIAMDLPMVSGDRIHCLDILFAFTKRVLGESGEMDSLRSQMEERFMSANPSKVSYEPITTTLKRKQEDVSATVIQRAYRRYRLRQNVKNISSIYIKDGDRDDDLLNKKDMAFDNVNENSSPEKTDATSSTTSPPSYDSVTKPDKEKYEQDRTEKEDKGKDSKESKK
Chain of hNav1.7 (Q07699 19-218 partner): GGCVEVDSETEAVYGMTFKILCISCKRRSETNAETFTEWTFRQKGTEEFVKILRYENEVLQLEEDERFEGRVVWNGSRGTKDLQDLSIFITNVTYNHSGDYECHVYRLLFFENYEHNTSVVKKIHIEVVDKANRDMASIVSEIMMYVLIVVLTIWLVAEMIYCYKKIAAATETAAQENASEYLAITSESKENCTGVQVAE

SMILES | pIC50
CC(C)(c1cccc(Cl)c1)N1CCC[C@@H](Oc2cc(F)c(C(=O)NS(=O)(=O)C3CC3)cc2C2CC2)C1 [Example 530, (R)-4-((1-(2-(3-chlorophenyl)propan-2-yl)piperidin-3-yl)oxy)-5-cyclopropyl-N-(cyclopropylsulfonyl)-2-fluorobenzamide, trifluoroacetic acid salt] | 8.64
CC1(C)CN(Cc2cc(F)c(C(=O)NS(=O)(=O)C3CC3)cc2C2CC2)CCC1Oc1cc(C(F)(F)F)c(Cl)cn1 (stereo not shown) [Example 562, 4-((4-((5-chloro-4-(trifluoromethyl)pyridin-2-yl)oxy)-3,3-dimethylpiperidin-1-yl)methyl)-5-cyclopropyl-N-(cyclopropylsulfonyl)-2-fluorobenzamide, trifluoroacetic acid salt] | 8.51
CS(=O)(=O)NC(=O)c1cc(C2CC2)c(CN2CCC(Oc3cc(C(F)(F)F)cc(Cl)c3F)CC2)cc1F [Example 536, 4-((4-(3-Chloro-2-fluoro-5-(trifluoromethyl)phenoxy)piperidin-1-yl)methyl)-5-cyclopropyl-2-fluoro-N-(methylsulfonyl)benzamide, trifluoroacetic acid salt] | 8.30
C[C@H]1CN(Cc2cc(F)c(C(=O)NS(=O)(=O)C3CC3)cc2C2CC2)CCN1[C@@H](C)c1cc(Cl)cc(Cl)c1 [Example 568, 5-cyclopropyl-N-(cyclopropylsulfonyl)-4-(((S)-4-((S)-1-(3,5-dichlorophenyl)ethyl)-3-methylpiperazin-1-yl)methyl)-2-fluorobenzamide] | 8.02
CS(=O)(=O)NC(=O)c1cc(C2CC2)c(OCC2CCN(Cc3ccc(F)c(C#N)c3)CC2)cc1F [Example 591, 4-((1-(3-cyano-4-fluorobenzyl)piperidin-4-yl)methoxy)-5-cyclopropyl-2-fluoro-N-(methylsulfonyl)benzamide] | 6.62
CS(=O)(=O)NC(=O)c1cc(C2CC2)c(O[C@@H]2CCCN(c3cc(Cl)cc(Cl)c3)C2)cc1F [Example 44, (R)-5-cyclopropyl-4-((1-(3,5-dichlorophenyl)piperidin-3-yl)oxy)-2-fluoro-N-(methylsulfonyl)benzamide] | 8.44

Same assay, conditions: read-out: Ligand Binding Assay; 100 pM [3H]compound, membranes with hNav1.7 and β1 subunit, 18 h, room temperature

SMILES | pIC50
CCS(=O)(=O)NC(=O)c1cc(C2CC2)c(OCCC2CCN(Cc3cc(Cl)cc(Cl)c3)CC2)cc1F [Example 303, 5-cyclopropyl-4-(2-(1-(3,5-dichlorobenzyl)piperidin-4-yl)ethoxy)-N-(ethylsulfonyl)-2-fluorobenzamide, trifluoroacetic acid salt] | 8.19
O=C(NS(=O)(=O)N1CCC1)c1cc(C2CC2)c(OCC2CCN(Cc3cc(C(F)(F)F)cc(Cl)c3F)CC2)cc1F [Example 583, N-(azetidin-1-ylsulfonyl)-4-((1-(3-chloro-2-fluoro-5-(trifluoromethyl)benzyl)piperidin-4-yl)methoxy)-5-cyclopropyl-2-fluorobenzamide] | 8.47
CS(=O)(=O)NC(=O)c1cc(C2CC2)c(O[C@@H]2CCCN(Cc3cc(Cl)ccc3O)C2)cc1F [Example 427, (R)-4-((1-(5-chloro-2-hydroxybenzyl)piperidin-3-yl)oxy)-5-cyclopropyl-2-fluoro-N-(methylsulfonyl)benzamide, trifluoroacetic acid salt] | 7.72
C[C@H](c1ccc(F)cc1)N1CCC[C@@H](Oc2cc(F)c(C(=O)NS(=O)(=O)C3CC3)cc2C2CC2)C1 [Example 317, 5-cyclopropyl-N-(cyclopropylsulfonyl)-2-fluoro-4-(((R)-1-((R)-1-(4-fluorophenyl)ethyl)piperidin-3-yl)oxy)benzamide] | 8.22
CS(=O)(=O)NC(=O)c1cc(C2CC2)c(OCC2CN(Cc3ccc(Cl)c(F)c3)C2)cc1F [Example 133, 4-((1-(4-Chloro-3-fluorobenzyl)azetidin-3-yl)methoxy)-5-cyclopropyl-2-fluoro-N-(methylsulfonyl)benzamide] | 6.93
CS(=O)(=O)NC(=O)c1cc(C2CC2)c(OCC2CCN(C(c3ccccc3)c3cc(Cl)cc(Cl)c3)CC2)cc1F (stereo not shown) [Example 412, 5-cyclopropyl-4-((1-((3,5-dichlorophenyl)(phenyl)methyl)piperidin-4-yl)methoxy)-2-fluoro-N-(methylsulfonyl)benzamide, trifluoroacetic acid salt] | 8.82
CC(c1cc(F)cc(F)c1)N1CCC(COc2cc(F)c(C(=O)NS(C)(=O)=O)cc2C2CC2)CC1 (stereo not shown) [Example 89, 5-Cyclopropyl-4-((1-(1-(3,5-difluorophenyl)ethyl)piperidin-4-yl)methoxy)-2-fluoro-N-(methylsulfonyl)benzamide] | 7.65
C[C@H](c1cc(Cl)cc(Cl)c1)N1CCC(C#N)(COc2cc(F)c(C(=O)NS(C)(=O)=O)cc2C2CC2)CC1 [Example 597] | 7.56
CS(=O)(=O)NC(=O)c1cc(C2CC2)c(OCC2CCN(C(c3ccc(F)cc3Cl)C(F)(F)F)CC2)cc1F (stereo not shown) [Example 300, 4-((1-(1-(2-chloro-4-fluorophenyl)-2,2,2-trifluoroethyl)piperidin-4-yl)methoxy)-5-cyclopropyl-2-fluoro-N-(methylsulfonyl)benzamide] | 8.80
CS(=O)(=O)NC(=O)c1cc(C2CC2)c(OCC2CCN(C(c3ccc(F)c(Cl)c3)C(F)(F)F)CC2)cc1F (stereo not shown) [Example 301, 4-((1-(1-(3-chloro-4-fluorophenyl)-2,2,2-trifluoroethyl)piperidin-4-yl)methoxy)-5-cyclopropyl-2-fluoro-N-(methylsulfonyl)benzamide] | 8.52
COC[C@](C)(c1cc(Cl)cc(Cl)c1)N1CCC(COc2cc(F)c(C(=O)NS(C)(=O)=O)cc2C2CC2)CC1 (single isomer, unassigned) [Example 202] | 8.80
CC[C@@H](c1cc(Cl)cc(Cl)c1)N1CCC(COc2cc(F)c(C(=O)NS(C)(=O)=O)cc2C2CC2)CC1 [Example 241, (S)-5-cyclopropyl-4-((1-(1-(3,5-dichlorophenyl)propyl)piperidin-4-yl)methoxy)-2-fluoro-N-(methylsulfonyl)benzamide] | 8.57
CS(=O)(=O)NC(=O)c1cc(C2CC2)c(OCC2CCN(Cc3cc(F)c(Cl)cc3Cl)CC2)cc1F [Example 453, 5-cyclopropyl-4-((1-(2,4-dichloro-5-fluorobenzyl)piperidin-4-yl)methoxy)-2-fluoro-N-(methylsulfonyl)benzamide, trifluoroacetic acid salt] | 8.52
COC[C@@H](c1ccc(F)c(Cl)c1)N1CCC(COc2cc(F)c(C(=O)NS(C)(=O)=O)cc2C2CC2)CC1 (single isomer, unassigned) [Example 181] | 7.96
CCS(=O)(=O)NC(=O)c1cc(C2CC2)c(OCC2CCN([C@H](C)c3ccc(Cl)cc3Cl)CC2)cc1F [Example 284, (R)-5-cyclopropyl-4-((1-(1-(2,4-dichlorophenyl)ethyl)piperidin-4-yl)methoxy)-N-(ethylsulfonyl)-2-fluorobenzamide] | 8.44
CS(=O)(=O)NC(=O)c1cc(C2CC2)c(CN2CCC(OCc3ccc(F)cc3Cl)CC2)cc1F [Example 478, 4-((4-((2-chloro-4-fluorobenzyl)oxy)piperidin-1-yl)methyl)-5-cyclopropyl-2-fluoro-N-(methylsulfonyl)benzamide, trifluoroacetic acid salt] | 7.42
Cc1cc(F)ccc1CN1CCC[C@@H](Oc2cc(F)c(C(=O)NS(C)(=O)=O)cc2C2CC2)C1 [Example 431, (R)-5-cyclopropyl-2-fluoro-4-((1-(4-fluoro-2-methylbenzyl)piperidin-3-yl)oxy)-N-(methylsulfonyl)benzamide, trifluoroacetic acid salt] | 8.49
CS(=O)(=O)NC(=O)c1cc(C2CC2)c(OCC2CN([C@@H](c3ccccc3)c3ccc(S(C)(=O)=O)cc3)C2)cc1F [Example 95, (S)-5-Cyclopropyl-2-fluoro-N-(methylsulfonyl)-4-((1-((4-(methylsulfonyl)phenyl)(phenyl)methyl)azetidin-3-yl)methoxy)benzamide] | 5.97
CC1(C)CO[C@H](Cc2cc(Cl)cc(Cl)c2)CN1Cc1cc(F)c(C(=O)NS(C)(=O)=O)cc1C1CC1 [Example 469, (R)-5-cyclopropyl-4-((2-(3,5-dichlorobenzyl)-5,5-dimethylmorpholino)methyl)-2-fluoro-N-(methylsulfonyl)benzamide, trifluoroacetic acid salt] | 7.00
CC1(COc2cc(F)c(C(=O)NS(C)(=O)=O)cc2C2CC2)CCN(Cc2ccc(F)cc2C(F)(F)F)CC1 [Example 130, 5-cyclopropyl-2-fluoro-4-((1-(4-fluoro-2-(trifluoromethyl)benzyl)-4-methylpiperidin-4-yl)methoxy)-N-(methylsulfonyl)benzamide] | 8.46
C[C@@H](c1ccc(OC(F)(F)F)cc1)N1CCC(C)(COc2cc(F)c(C(=O)NS(C)(=O)=O)cc2C2CC2)CC1 (single isomer, unassigned) [Example 248] | 8.00
COC[C@H](c1ccc(F)c(C(F)(F)F)c1)N1CCC(COc2cc(F)c(C(=O)NS(C)(=O)=O)cc2C2CC2)CC1 (single isomer, unassigned) [Example 188] | 8.28
CS(=O)(=O)NC(=O)c1cc(C2CC2)c(OC[C@@H]2C[C@H]3CC[C@@H](C2)N3Cc2cc(C(F)(F)F)ccc2Cl)cc1F [Example 399, 4-(((1R,3S,5S)-8-(2-chloro-5-(trifluoromethyl)benzyl)-8-azabicyclo[3.2.1]octan-3-yl)methoxy)-5-cyclopropyl-2-fluoro-N-(methylsulfonyl)benzamide, trifluoroacetic acid salt] | 8.34
CS(=O)(=O)NC(=O)c1cc(C2CC2)c(O[C@@H]2CCCN(C(=O)c3cc(Cl)cc(Cl)c3)C2)cc1F [Example 221, (R)-5-cyclopropyl-4-((1-(3,5-dichlorobenzoyl)piperidin-3-yl)oxy)-2-fluoro-N-(methylsulfonyl)benzamide] | 5.74

Same assay, conditions: read-out: Ligand Binding Assay; 100 pM [3H]compound, membranes with hNav1.7 and β1 subunit, 18 h, room temperature; trifluoroacetic acid salt

SMILES | pIC50
CS(=O)(=O)NC(=O)c1cc(C2CC2)c(CN2[C@@H]3CC[C@H]2C[C@@H](Oc2ncc(C(F)(F)F)cc2Cl)C3)cc1F [Example 552, 4-(((1R,3r,5S)-3-((3-chloro-5-(trifluoromethyl)pyridin-2-yl)oxy)-8-azabicyclo[3.2.1]octan-8-yl)methyl)-5-cyclopropyl-2-fluoro-N-(methylsulfonyl)benzamide, trifluoroacetic acid salt] | 8.15
